Data: patent US11498928B2, “Macrocyclic spiroethers as Mcl-1 inhibitors” (ASCENTAGE PHARMA (SUZHOU) CO., LTD., priority 2019, dated 2022)

Tests used:
NCI-H929 cells = assay: Cell viability assay (NCI-H929 cells), CCK-8; type: cell-based; details: Homo sapiens, NCI-H929, 24 h, 5% FBS
Procedure: NCI-H929 cells were obtained from American Type Culture Collection (ATCC). Cells were maintained in the recommended culture medium (RPMI 1640) with 10% FBS and 0.05 mM BME at 37° C. and an atmosphere of 5% CO2.
The effect of Compounds on cell viability was determined using Cell Counting Kit-8 (CCK-8) assay according to the manufacturer's instructions. 95 μL of NCI-H929 cell suspension (20000 cells/well) in culture medium were seeded into 96-well plates and cultured 4 hrs. Each tested compound was serially diluted in DMSO, then 5 μL of the compound or DMSO was diluted in 95 μL medium once more. At last, 5 μL of the compound dilution was added to the corresponding well of the cell plate. After the addition of the tested compound, the cells were incubated at 37° C. in an atmosphere of 5% CO2 for 24 hrs. At the end, 10 μL of CCK-8 solution was added to each well of the plate and incubated for 1-4 hours. The plates were read at 450 nm on the microplate reader (BioTek Synergy 1MF). The readings were normalized to the vehicle cells, and the IC50 was calculated by nonlinear regression analysis using GraphPad Prism 6 software. Cell Viability Assay (OPM-2 cells)

OPM-2 cells = assay: Cell viability assay (OPM-2 cells), CCK-8; type: cell-based; details: Homo sapiens, OPM-2, 24 h, 5% FBS
Procedure: OPM-2 cells were obtained from Deutsche Sammlung von Mikroorganismen and Zellkulturen GmbH (DSMZ). Cells were maintained in the recommended culture medium with 10% FBS at 37° C. and an atmosphere of 5% CO2.
The effect of representative Compounds of the Disclosure on cell viability was determined using Cell Counting Kit-8 (CCK-8) assay (Shanghai Life iLab Bio Technology) according to the manufacturer's instructions. Each tested compound was serially diluted in culture medium, 100 μL of the compound dilution was added into 96-well plates. 100 μL of an OPM-2 cell suspension (20000 cells/well) in culture medium were seeded into the corresponding well of the plate and the cells were incubated at 37° C. in an atmosphere of 5% CO2 for 24 hours. In the next day, 20 μL of CCK-8 solution was added to each well of the plate and incubated for 4 hours.
The plates were read at 450 nm on the microplate spectrophotometer (SpectraMax plus 384, Molecular devices). The readings were normalized to the vehicle cells, and the IC50 was calculated by nonlinear regression analysis using GraphPad Prism 6 software.

[1] = biological target: T1, Mcl-1 protein (residues 171-323) (Homo sapiens, UniProt Q07820); assay: Inhibition of Mcl-1 by fluorescence polarization (FP) competitive binding assay with FAM-Bid tracer; details: 2 nM FAM-Bid, 20 nM Mcl-1, 30 min
T1 construct: Tag-free Mcl-1 protein (residues 171-323) was used in the FP assay
Procedure: Inhibition of Mcl-1 by Fluorescence Polarization (FP) Assay.
The relative binding potency of representative Compounds of the Disclosure was determined by a fluorescence polarization (FP) assay (Long et al, BMC Biotechnology 13:45 (2013)). The method used a fluorescein labelled peptide (FAM-Bid) which binds to the Mcl-1 protein leading to an increased anisotropy measured in milli-polarization (mP) values using a plate reader. […] Tag-free Mcl-1 protein (residues 171-323) was used in the FP assay (Mady et al, Scientific Reports 8: 10210-10210 (2018); Yang et al, ACS Med. Chem. Lett. 3:308-312 (2012)).
A 10-points serial dilution of each compound was prepared in DMSO and 5 μL solution was transferred into flat bottomed, 96-well back plate (final DMSO concentration 5%). 120 μL of Buffer (PBS, 0.01% BGG (Sigma Cat. #SRE0011), 0.01% Triton X-100), containing the Fluorescein labelled peptide (Final concentration 2 nM) and Mcl-1 protein (final concentration 20 nM) was then added. Assay plates were incubated 30 mins at room temperature with gentle shaking before FP was measured on a Biotek Synergy 1MF reader (Ex. 485 nm, Em. 528 nm, Cut off 510 nm) and mP calculated. The binding of increasing doses of test compounds was expressed as a percentage reduction in mP compared to a window established between 5% DMSO only and 100% inhibition controls (no Mcl-1 protein). 10-points dose response curves were plotted with GraphPad software using Sigmoidal Dose-Response Model and the IC50 values were determined by nonlinear regression fitting of the competition curves. Cell Viability Assay (NCI-H929 cells)

T1 sequence (Q07820 171-323): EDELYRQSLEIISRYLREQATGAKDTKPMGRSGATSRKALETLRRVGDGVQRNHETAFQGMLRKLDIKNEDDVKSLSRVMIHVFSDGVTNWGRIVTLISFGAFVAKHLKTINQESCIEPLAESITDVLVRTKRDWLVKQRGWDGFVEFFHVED

Row | IC50 (NCI-H929 cells) [nM] | IC50 [1] [nM] | Structure (SMILES) | IC50 (OPM-2 cells) [nM]
1 | 16 | 9.7 | CO[C@@]1(CN2CCN3CCOC[C@H]3C2)C2=C[C@@H](C2)[C@H](C)[C@@H](C)S(=O)(=O)NC(=O)c2ccc3c(c2)N(C[C@@H]2CC[C@H]21)C[C@@]1(CCCc2c1ccc(Cl)c2F)CO3 [compound 34, (1S,11′R,12′S,13′R,16′R,16a′R,18a′R,E)-6-chloro-5-fluoro-16′-(((R)-hexahydropyrazino[2,1-c][1,4]oxazin-8(1H)-yl)methyl)-16′-methoxy-11′,12′-dimethyl-3,4,12′,13′,16′,16a′,17′,18′,18a′,19′-decahydro-1′H,2H,3′H,11′H-spiro[naphthalene-1,2′-[5,7]etheno[13,15]methanocyclobuta[i][1,4]oxazepino[3,4-f][1]thia[2,7]diazacyclohexadecin]-8′(9′H)-one 10′,10′-dioxide] | 35
2 | 2.4 | 14 | CO[C@@]1(CN2CCN(C)CC2)C2=C[C@@H](C2)[C@H](C)[C@@H](C)S(=O)(=O)NC(=O)c2ccc3c(c2)N(C[C@@H]2CC[C@H]21)C[C@@]1(CCCc2c1ccc(Cl)c2F)CO3 [compound 35, (1S,11′R,12′S,13′R,16′R,16a′R,18a′R,E)-6-chloro-5-fluoro-16′-methoxy-11′,12′-dimethyl-16′-((4-methylpiperazin-1-yl)methyl)-3,4,12′,13′,16′,16a′,17′,18′,18a′,19′-decahydro-1′H,2H,3′H, 11′H-spiro[naphthalene-1,2′-[5,7]etheno[13,15]methanocyclobuta[i][1,4]oxazepino[3,4-f][1]thia[2,7]diazacyclohexadecin]-8′(9′H)-one 10′,10′-dioxide] | 32
3 | 4.4 | 13 | CO[C@@]1(CN2CCN(C3CCOCC3)CC2)C2=C[C@@H](C2)[C@H](C)[C@@H](C)S(=O)(=O)NC(=O)c2ccc3c(c2)N(C[C@@H]2CC[C@H]21)C[C@@]1(CCCc2c1ccc(Cl)c2F)CO3 [compound 36] | 35
4 | 12 | 17 | CO[C@@]1(CN2CCC(N3CCOCC3)CC2)C2=C[C@@H](C2)[C@H](C)[C@@H](C)S(=O)(=O)NC(=O)c2ccc3c(c2)N(C[C@@H]2CC[C@H]21)C[C@@]1(CCCc2c1ccc(Cl)c2F)CO3 [compound 37, (1S,11′R,12′S,13′R,16′R,16a′R,18a′R,E)-6-chloro-5-fluoro-16′-methoxy-11′,12′-dimethyl-16′-((4-morpholinopiperidin-1-yl)methyl)-3,4,12′,13′,16′,16a′,17′,18′,18a′,19′-decahydro-1′H,2H,3′H, 11′H-spiro[naphthalene-1,2′-[5,7]etheno[13,15]methanocyclobuta[i][1,4]oxazepino[3,4-f][1]thia[2,7]diazacyclohexadecin]-8′(9′H)-one 10′,10′-dioxide] | 63
5 | 50 | 15 | CO[C@@]1(CN2CCN(S(C)(=O)=O)CC2)C2=C[C@@H](C2)[C@H](C)[C@@H](C)S(=O)(=O)NC(=O)c2ccc3c(c2)N(C[C@@H]2CC[C@H]21)C[C@@]1(CCCc2c1ccc(Cl)c2F)CO3 [compound 38, (1S,11′R,12′S,13′R,16′R,16a′R,18a′R,E)-6-chloro-5-fluoro-16′-methoxy-1′,12′-dimethyl-16′-((4-(methylsulfonyl)piperazin-1-yl)methyl)-3,4,12′,13′,16′,16a′,17′,18′,18a′,19′-decahydro-1′H,2H,3′H,11′H-spiro[naphthalene-1,2′-[5,7]etheno[13,15]methanocyclobuta[i][1,4]oxazepino[3,4-f][1]thia[2,7]diazacyclohexadecin]-8′(9′H)-one 10′,10′-dioxide] | 30

Second part, the molecule before the results:

Row | Structure (SMILES) | IC50 (NCI-H929 cells) [nM] | IC50 [1] [nM] | IC50 (OPM-2 cells) [nM]
6 | CO[C@@H]1C2CC(C2)[C@H](C)N(C)S(=O)(=O)NC(=O)c2ccc3c(c2)N(C[C@@H]2CC[C@H]21)C[C@@]1(CCCc2cc(Cl)ccc21)CO3 [Cpd. No. 29, (1S,12′S,16′R,16a′R,18a′R)-6-chloro-16′-methoxy-11′,12′-dimethyl-3,4,12′,13′,14′,15′,16′,16a′,17′,18′,18a′,19′-dodecahydro-1′H,2H,3′H,11′H-spiro[naphthalene-1,2′-[5,7]etheno[13,15]methanocyclobuta[i][1,4]oxazepino[3,4-f][1]thia[2,7,16]triazacyclohexadecin]-8′(9′H)-one 10′,10′-dioxide] | 5500 | 16 | 5210
7 | CO[C@H]1C2CC(C2)[C@H](C)CS(=O)(=O)NC(=O)c2ccc3c(c2)N(C[C@@H]2CC[C@H]21)C[C@@]1(CCCc2cc(Cl)ccc21)CO3 [compound 3] | 3000 | 8 | 5450
8 | CO[C@H]1C2=C[C@@H](C2)[C@H](C)[C@@H](C)S(=O)(=O)NC(=O)c2ccc3c(c2)N(C[C@@H]2CC[C@H]21)C[C@@]1(CCCc2c1cc(F)c(Cl)c2F)CO3 [compound 25] | 3400 | 420 | 2500
9 | CO[C@H]1C2=CC3(C2)CN(C3)S(=O)(=O)NC(=O)c2ccc3c(c2)N(C[C@@H]2CC[C@H]21)C[C@@]1(CCCc2cc(Cl)ccc21)CO3 [compound 31, (1S,16′R,16a′R,18a′R)-6-chloro-16′-methoxy-3,4,16′,16a′,17′,18′,18a′,19′-octahydro-1′H,2H,3′H,12′H-spiro[naphthalene-1,2′-[5,7]etheno[11,13:13,15]dimethanocyclobuta[i][1,4]oxazepino[3,4-f][1]thia[2,7,16]triazacyclohexadecin]-8′(9′H)-one 10′,10′-dioxide] | 9700 | 11 | 9280
10 | CO[C@@]1(CN2CCN3CCCC[C@H]3C2)C2=C[C@@H](C2)[C@H](C)[C@@H](C)S(=O)(=O)NC(=O)c2ccc3c(c2)N(C[C@@H]2CC[C@H]21)C[C@@]1(CCCc2c1ccc(Cl)c2F)CO3 [compound 32, (1S,11′R,12′S,13′R,16′R,16a′R,18a′R,E)-6-chloro-5-fluoro-16′-methoxy-11′,12′-dimethyl-16′-(((S)-octahydro-2H-pyrido[1,2-a]pyrazin-2-yl)methyl)-3,4,12′,13′,16′,16a′,17′,18′,18a′,19′-decahydro-1′H,2H,3′H,11′H-spiro[naphthalene-1,2′-[5,7]etheno[13,15]methanocyclobuta[i][1,4]oxazepino[3,4-f][1]thia[2,7]diazacyclohexadecin]-8′(9′H)-one 10′,10′-dioxide] | 10 | 13 | 29
11 | CO[C@@]1(CN2CCOCC2)C2=C[C@@H](C2)[C@H](C)[C@@H](C)S(=O)(=O)NC(=O)c2ccc3c(c2)N(C[C@@H]2CC[C@H]21)C[C@@]1(CCCc2c1ccc(Cl)c2F)CO3 [compound 33, (1S,11′R,12′S,13′R,16′R,16a′R,18a′R,E)-6-chloro-5-fluoro-16′-methoxy-11′,12′-dimethyl-16′-(morpholinomethyl)-3,4,12′,13′,16′,16a′,17′,18′,18a′,19′-decahydro-1′H,2H,3′H,11′H-spiro[naphthalene-1,2′-[5,7]etheno[13,15]methanocyclobuta[i][1,4]oxazepino[3,4-f][1]thia[2,7]diazacyclohexadecin]-8′(9′H)-one 10′,10′-dioxide] | 36 | 13 | 52
